Patent US20220175692A1, “PRESYNAPTIC GLUTAMATE RELEASE INHIBITORS FOR DECREASING NMDA ANTAGONIST SIDE EFFECTS IN ANESTHESIA” (THE CLEVELAND CLINIC FOUNDATION, priority 2020, published 2022)

How the values were obtained:
[1] = system: ketamine-induced psychological disturbances in adults scheduled for elective noncardiac surgery; assay: Pilot randomized, double-blind trial of lamotrigine before surgery with ketamine anesthesia; assay type: in vivo, human
Description: We report the finding of a pilot randomized and double-blind trial in which we tested the hypothesis that a single 300-mg dose of lamotrigine given a few hours before surgery reduces ketamine-induced psychological disturbances. We enrolled 46 adults (23 Lamotrigine, 23 placebo) 18-65 years who were scheduled for elective noncardiac surgery with general anesthesia with a planned overnight stay at Cleveland Clinic main campus between April 2019 and October 2019. All included patients provided written informed consent during their preoperative clinic visit. The trial was approved by Cleveland Clinic Institutional Review Board and was registered at clinicaltrails.gov [NCT03831854; PI Kamal Maheshwari; February 2019]. It was a priori defined as a pilot trial.
All patients received ketamine 1 mg/kg bolus at induction of anesthesia followed by a 5-μg/kg/min infusion which was stopped at the end of surgery. Anesthesia generally included propofol, a muscle relaxant, fentanyl, and sevoflurane. The primary outcome was presence of the psychologic disturbances measured 30-90 min after admission to the post-anesthesia care unit. We evaluated four key items of the Brief Psychiatric Rating Scale corresponding to positive symptoms of schizophrenia: conceptual disorganization, hallucinatory behavior, suspiciousness, and unusual thought content. Each symptom was rated 1-7 (1=not present, 2=very mild, 3=mild, 4=moderate, 5=moderately severe, 6=severe, 7=extremely severe). Secondary outcomes were opioid use, pain, and postoperative nausea or vomiting in the post-anesthesia care unit.

[2] = system: psychologic disturbances associated with perioperative ketamine use; settings: reported range across studies (Avidan et al. 2017); cited from earlier work
[3] = system: ketamine-induced perceptual abnormalities in healthy subjects; settings: 300 mg oral lamotrigine; cited from earlier work

SMILES	patients who displayed psychologic disturbances ([1]; all trial patients (lamotrigine and placebo groups), moderate dose of ketamine: 1 mg/kg bolus then 5-μg/kg/min infusion) [%]	incidence of psychologic disturbances associated with perioperative ketamine use [2]	pain scores, difference in means lamotrigine vs placebo ([1]; 98.3% CI −1.7, 2.6, P=0.58)	Opioid use, median difference lamotrigine vs placebo ([1]; 98.3% CI −9.5, 5.0, P=0.63)	pain scores, mean±standard deviation ([1]; in the post-anesthesia care unit, lamotrigine 300 mg patients)	patients who experienced nausea or vomiting ([1]; in vivo)	patients with psychologic disturbances (four key items of the Brief Psychiatric Rating Scale) ([1]; single 300-mg dose of lamotrigine a few hours before surgery, ketamine 1 mg/kg bolus then 5-μg/kg/min infusion, measured 30-90 min after admission to post-anesthesia care unit, n=23)	effect on ketamine-induced perceptual abnormalities [3]
CNC1(c2ccccc2Cl)CCCCC1=O (centres unmarked) [ketamine]	6	7% to 27	–	–	–	–	–	–
Nc1nnc(-c2cccc(Cl)c2Cl)c(N)n1 [lamotrigine]	–	–	0.5	−2.3	4.9±3.1	Five	No patients	significantly decreased
